Read-outs that look alike come from different tables or passages of the source.
Molecular target: T1, KDM5A (Homo sapiens, UniProt P29375)
T1 construct: C-terminal FLAG-tagged KDM5A^1-1090 was purchased from BPS Biosciences; FLAG (C); purchased BPS Biosciences
T1 sequence (P29375 1-1090): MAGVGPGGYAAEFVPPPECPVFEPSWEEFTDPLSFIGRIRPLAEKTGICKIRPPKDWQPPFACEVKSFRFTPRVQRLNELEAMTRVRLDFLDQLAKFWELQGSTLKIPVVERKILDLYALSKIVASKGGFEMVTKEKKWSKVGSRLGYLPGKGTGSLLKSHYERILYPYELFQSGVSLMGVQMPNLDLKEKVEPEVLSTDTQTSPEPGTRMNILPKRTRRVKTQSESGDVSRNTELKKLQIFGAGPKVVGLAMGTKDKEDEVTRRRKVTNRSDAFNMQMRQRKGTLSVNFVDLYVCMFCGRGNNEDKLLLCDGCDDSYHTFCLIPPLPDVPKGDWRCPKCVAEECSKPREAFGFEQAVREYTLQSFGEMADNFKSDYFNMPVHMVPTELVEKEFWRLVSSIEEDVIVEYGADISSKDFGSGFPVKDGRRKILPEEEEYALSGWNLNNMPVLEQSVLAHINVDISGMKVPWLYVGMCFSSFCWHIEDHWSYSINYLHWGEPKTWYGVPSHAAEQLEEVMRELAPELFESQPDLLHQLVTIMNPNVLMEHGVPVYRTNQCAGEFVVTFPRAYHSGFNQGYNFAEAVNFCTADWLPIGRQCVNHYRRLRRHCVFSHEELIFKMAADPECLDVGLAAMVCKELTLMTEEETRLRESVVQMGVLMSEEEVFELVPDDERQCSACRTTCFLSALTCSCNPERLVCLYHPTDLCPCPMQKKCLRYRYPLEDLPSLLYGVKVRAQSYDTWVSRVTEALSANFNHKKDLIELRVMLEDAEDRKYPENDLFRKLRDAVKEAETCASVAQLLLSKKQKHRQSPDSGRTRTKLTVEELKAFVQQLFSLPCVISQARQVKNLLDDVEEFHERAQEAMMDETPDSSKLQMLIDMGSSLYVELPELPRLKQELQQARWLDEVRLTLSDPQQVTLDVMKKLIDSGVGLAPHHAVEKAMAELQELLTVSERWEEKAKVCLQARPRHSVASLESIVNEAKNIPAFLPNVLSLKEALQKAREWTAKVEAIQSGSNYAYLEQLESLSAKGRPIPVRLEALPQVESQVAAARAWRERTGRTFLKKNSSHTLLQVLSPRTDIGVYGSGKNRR
Test: KDM5A Assay (SAMDI mass spectrometry demethylase assay)
Format: biochemical
Conditions: C-terminal FLAG-tagged KDM5A 1-1090, read-out: 5A IC50
Summary of the method: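 FLAG-tagged KDM5A 1-1090 (20 nM) preincubated 30 min with compound in pH 8.0 HEPES buffer with ascorbate, Fe(II), TCEP, then reacted 150 min at 25 °C with H3K4me3 peptide (250 nM) and 2-oxoglutarate (15 μM). Formic acid-quenched; SAMDI-MS substrate/product AUC conversion; IC50 from dose-response.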

SMILES: NC1CCC(n2nc(Nc3cnccc3C(=O)O)cc2-c2cccc(Cl)c2)CC1 (centres unmarked) [Compound 87, 3-((1-(4-aminocyclohexyl)-5-(3-chlorophenyl)-1H-pyrazol-3-yl)amino)isonicotinic acid]
- IC50 (class symbols): 1000 to 10000 nM

SMILES: CCc1c(Nc2cnccc2C(=O)O)cnn1-c1ccccc1 [Compound 81, 3-((5-ethyl-1-phenyl-1H-pyrazol-4-yl)amino)isonicotinic acid]
- IC50 (class symbols): 1000 to 10000 nM

SMILES: Cc1c(Nc2cnccc2C(=O)O)cnn1C1CCN(CC2CC2)CC1 [Compound 90, 3-(1-(1-(cyclopropylmethyl)piperidin-4-yl)-5-methyl-1H-pyrazol-4-ylamino) isonicotinic acid]
- IC50 (class symbols): 1000 to 10000 nM

SMILES: Cc1nn(C2CCN(C3CN(C)C3)CC2)cc1Nc1cnccc1C(=O)O [Compound 91, 3-(3-methyl-1-(1-(1-methylazetidin-3-yl)piperidin-4-yl)-1H-pyrazol-4-ylamino)isonicotinic acid]
- IC50 (class symbols): 100 to 1000 nM

SMILES: COC(=O)c1ccncc1Nc1cn(C2CCN(C3CCC3)CC2)nc1C [Compound 93, methyl 3-((1-(1-cyclobutylpiperidin-4-yl)-3-methyl-1H-pyrazol-4-yl)amino)isonicotinate]
- IC50 (class symbols): 10000 to 100000 nM

SMILES: COC(=O)c1ccncc1Nc1cnn(C2CCN(C3CCC3)CC2)c1C [Compound 95, methyl 3-((1-(1-cyclobutylpiperidin-4-yl)-5-methyl-1H-pyrazol-4-yl)amino)isonicotinate]
- IC50 (class symbols): 10000 to 100000 nM

SMILES: O=C(O)c1ccncc1Nc1nn(-c2ccccc2)cc1-c1ccncc1 [Compound 88, 3-((1-phenyl-4-(pyridin-4-yl)-1H-pyrazol-3-yl)amino) isonicotinic acid]
- IC50 (class symbols): 100 to 1000 nM

SMILES: Cc1c(Nc2cnccc2C(=O)O)cnn1C1CCN(C2CN(C)C2)CC1 [Compound 92, 3-(5-methyl-1-(1-(1-methylazetidin-3-yl)piperidin-4-yl)-1H-pyrazol-4-ylamino)isonicotinic acid]
- IC50 (class symbols): 1000 to 10000 nM

SMILES: Cc1nn(C2CCN(CC3CC3)CC2)cc1Nc1cnccc1C(=O)O [Compound 89, 3-(1-(1-(cyclopropylmethyl)piperidin-4-yl)-3-methyl-1H-pyrazol-4-ylamino)isonicotinic acid]
- IC50 (class symbols): 100 to 1000 nM

SMILES: Cc1nn(C2CCN(C3CCC3)CC2)cc1Nc1cnccc1C(=O)O [Compound 94, 3-(1-(1-cyclobutylpiperidin-4-yl)-3-methyl-1H-pyrazol-4-ylamino)isonicotinic acid]
- IC50 (class symbols): 100 to 1000 nM

SMILES: CN1CCC(n2ncc(Nc3cnccc3C(=O)O)c2-c2ccccc2)CC1 [Compound 126, 3-(1-(1-methylpiperidin-4-yl)-5-phenyl-1H-pyrazol-4-ylamino) isonicotinic acid]
- IC50 (class symbols): 1000 to 10000 nM

SMILES: Cn1nc(Nc2cnccc2C(=O)O)cc1-c1ccccc1 [Compound 5]
- IC50 (class symbols): 100 to 1000 nM

SMILES: Cc1nn([C@H]2CC[C@@H](N)CC2)cc1Nc1cnccc1C(=O)O [Compound 80, 3-((1-((cis)-4-aminocyclohexyl)-3-methyl-1H-pyrazol-4-yl)amino)isonicotinic acid]
- IC50 (class symbols): 1 to 100 nM

SMILES: Cn1ncc(-c2cccnc2)c1Nc1cnccc1C(=O)O [Compound 4]
- IC50 (numeric bound): > 100000 nM

SMILES: NC1CCC(n2nc(-c3cccc(Cl)c3)cc2Nc2cnccc2C(=O)O)CC1 (centres unmarked) [Compound 85, 3-((1-(4-aminocyclohexyl)-3-(3-chlorophenyl)-1H-pyrazol-5-yl)amino)isonicotinic acid]
- IC50 (class symbols): 1000 to 10000 nM

SMILES: Cc1ccc(-n2cc(Nc3cnccc3C(=O)O)c(C)n2)cc1 [Compound 82]
- IC50 (class symbols): 1 to 100 nM

SMILES: O=C(O)c1ccncc1Nc1cc(-c2cccc(Cl)c2)n(C2CCC3(CC2)OCCO3)n1 [Compound 86, 3-((5-(3-chlorophenyl)-1-(1,4-dioxaspiro[4.5]decan-8-yl)-1H-pyrazol-3-yl)amino)isonicotinic acid]
- IC50 (class symbols): 1000 to 10000 nM

— patent publication US20170291890A1 (Epizyme, Inc., priority 2014, published 2017)
